In patent US8952162B2, “Triazolopyridines as phosphodiesterase inhibitors for treatment of dermal diseases” (Leo Pharma A/S, priority 2008, dated 2015):

The compounds below were run against Human recombinant PDE4 (Genbank accession no NM—006203) (Homo sapiens, UniProt Q08499) (assay: PDE4 assay (SPA, cAMP cleavage)). Settings: Example 52; human recombinant PDE4, 1 hour incubation, cAMP 1×10^-5M, test compound up to 10 μM; read-out: PDE4 IC50 range.
Format: biochemical
Procedure: At the end of the incubation, the cleavage of the substrate was evaluated by the binding of the AMP product to SPA beads, which generate chemoluminescence when bound to the radioactive tracer. The AMP product inhibited the binding of the radioactive tracer to the beads, and the luminescent signal was competed.

Chain of Human recombinant PDE4 (Genbank accession no NM—006203) (Q08499 1-673 isoform Q08499-2): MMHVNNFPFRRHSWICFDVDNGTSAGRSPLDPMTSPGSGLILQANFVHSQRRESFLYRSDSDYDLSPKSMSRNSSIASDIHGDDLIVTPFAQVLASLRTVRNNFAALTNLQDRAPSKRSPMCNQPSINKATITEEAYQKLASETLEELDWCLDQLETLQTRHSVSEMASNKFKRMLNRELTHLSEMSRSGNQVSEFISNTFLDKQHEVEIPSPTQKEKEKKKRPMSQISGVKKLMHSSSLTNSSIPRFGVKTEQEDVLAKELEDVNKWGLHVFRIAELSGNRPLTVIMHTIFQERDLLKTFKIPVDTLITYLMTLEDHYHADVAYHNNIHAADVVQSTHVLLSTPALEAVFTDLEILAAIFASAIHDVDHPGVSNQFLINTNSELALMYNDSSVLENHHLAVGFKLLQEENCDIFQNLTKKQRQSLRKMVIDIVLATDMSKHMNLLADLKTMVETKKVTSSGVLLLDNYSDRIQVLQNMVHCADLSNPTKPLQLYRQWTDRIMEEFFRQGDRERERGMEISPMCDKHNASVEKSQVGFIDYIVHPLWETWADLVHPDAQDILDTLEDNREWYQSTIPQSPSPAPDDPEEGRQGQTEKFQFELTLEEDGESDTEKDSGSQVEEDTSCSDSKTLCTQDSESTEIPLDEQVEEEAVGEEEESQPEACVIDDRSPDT

| IC50 [nM] | Compound |
| --- | --- |
| > 1000 | COc1ccc(-c2cccc(NC(C)=O)c2)n2nc(C3CC3)nc12 [Compound 107, N-[3-(2-Cyclopropyl-8-methoxy-[1,2,4]triazolo[1,5-a]pyridin-5-yl)-phenyl]-acetamide] |
| 500 to 1000 | COc1ccc(-c2ccc(Cl)cc2Cl)n2nc(C3CC3)nc12 [Compound 127, 2-Cyclopropyl-5-(2,4-dichloro-phenyl)-8-methoxy-[1,2,4]triazolo[1,5-a]pyridine] |
| > 1000 | COc1ccc(-c2ccc(CNS(C)(=O)=O)cc2)n2nc(C3CC3)nc12 [Compound 130, N-[4-(2-Cyclopropyl-8-methoxy-[1,2,4]triazolo[1,5-a]pyridin-5-yl)-benzyl]-methanesulfonamide] |
| < 500 | COc1ccc(-c2ccc(C#N)cc2)n2nc(C3CC3)nc12 [Compound 132, 4-(2-Cyclopropyl-8-methoxy-[1,2,4]triazolo[1,5-a]pyridin-5-yl)-benzonitrile] |
| < 500 | COc1ccc(-c2ccc(F)cc2)n2nc(C3CC3)nc12 [Compound 131, 2-Cyclopropyl-5-(4-fluoro-phenyl)-8-methoxy-[1,2,4]triazolo[1,5-a]pyridine] |

Same assay, conditions: Example 53; PDE4 assay as in example 52; read-out: PDE4 IC50 range

| Compound | IC50 [nM] |
| --- | --- |
| COc1ccc(-c2cccc3c2CCC3=O)n2nc(C3(C(=O)NCC4CCCCC4)CC3)nc12 [Compound 176, 1-[8-Methoxy-5-(1-oxo-indan-4-yl)-[1,2,4]triazolo[1,5-a]pyridin-2-yl]-cyclopropanecarboxylic acid cyclohexylmethyl-amide] | < 500 |
| COc1ccc(-c2cccc(C#N)c2)n2nc(C3(C(=O)N4CCCC4)CC3)nc12 [Compound 200, 3-{8-Methoxy-2-[1-(pyrrolidine-1-carbonyl)-cyclopropyl]-[1,2,4]triazolo[1,5-a]pyridin-5-yl}-benzonitrile] | 500 to 1000 |
| COc1ccc(-c2cncc(C#N)c2)n2nc(C3(C(=O)NCc4ccccc4)CC3)nc12 [Compound 173, 1-[5-(5-Cyano-pyridin-3-yl)-8-methoxy-[1,2,4]triazolo[1,5-a]pyridin-2-yl]-cyclopropanecarboxylic acid benzylamide] | < 500 |
| COc1ccc(-c2cccc(C#N)c2)n2nc(C3(CNC(=O)N4CCCC4)CC3)nc12 [Compound 156, Pyrrolidine-1-carboxylic acid {1-[5-(3-cyano-phenyl)-8-methoxy-[1,2,4]triazolo[1,5-a]pyridin-2-yl]-cyclopropylmethyl}-amide] | < 500 |
| COc1ccc(-c2cncc(C#N)c2)n2nc(C3(C(=O)NCCS(C)(=O)=O)CC3)nc12 [Compound 186, 1-[5-(5-Cyano-pyridin-3-yl)-8-methoxy-[1,2,4]triazolo[1,5-a]pyridin-2-yl]-cyclopropanecarboxylic acid (2-methanesulfonyl-ethyl)-amide] | < 500 |
| C=C(C)C(=O)OCCNC(=O)C1(c2nc3c(OC)ccc(-c4cccc(C#N)c4)n3n2)CC1 [Compound 201, 2-Methyl-acrylic acid 2-({1-[5-(3-cyano-phenyl)-8-methoxy-[1,2,4]triazolo[1,5-a]pyridin-2-yl]-cyclopropanecarbonyl}-amino)-ethyl ester] | < 500 |
| CCOC(=O)C1(c2nc3c(OC)ccc(-c4ccc(C#N)cc4)n3n2)CC1 [Compound 146, 1-[5-(4-Cyano-phenyl)-8-methoxy-[1,2,4]triazolo[1,5-a]pyridin-2-yl]-cyclopropanecarboxylic acid ethyl ester] | 500 to 1000 |
| COc1ccc(-c2cc(F)cc(C#N)c2)n2nc(C3CC3)nc12 [Compound 164, 3-(2-Cyclopropyl-8-methoxy-[1,2,4]triazolo[1,5-a]pyridin-5-yl)-5-fluoro-benzonitrile] | < 500 |
| COc1ccc(-c2cccc(C(C)=O)c2)n2nc(C3(C(=O)O)CC3)nc12 [Compound 193, 1-[5-(3-Acetyl-phenyl)-8-methoxyl-[1,2,4]triazolo[1,5-a]pyridin-2-yl]-cyclopropanecarboxylic acid] | > 1000 |
| COc1ccc(-c2cccc(C#N)c2)n2nc(C3(C(=O)N4CCOCC4)CC3)nc12 [Compound 196, 3-{8-Methoxy-2-[1-(morpholine-4-carbonyl)-cyclopropyl]-[1,2,4]triazolo-[1,5-a]pyridin-5-yl}-benzonitrile] | 500 to 1000 |
| COc1ccc(-c2cncc(C#N)c2)n2nc(C3(C(=O)NCC4CCCCC4)CC3)nc12 [Compound 185, 1-[5-(5-Cyano-pyridin-3-yl)-8-methoxy-[1,2,4]triazolo[1,5-a]pyridin-2-yl]-cyclopropanecarboxylic acid cyclohexylmethyl-amide] | < 500 |

Results, then the compound that gave them:

| IC50 [nM] | Compound |
| --- | --- |
| < 500 | COc1cc(-c2ccc(OC)c3nc(C4(COC(=O)NC(C)C)CC4)nn23)ccc1C#N [Compound 235, Isopropyl-carbamic acid 1-[5-(4-cyano-3-methoxy-phenyl)-8-methoxy-[1,2,4]triazolo[1,5-a]pyridin-2-yl]-cyclopropylmethyl ester] |
| > 1000 | COc1ccc(-c2ccc(C#N)cc2)n2nc(C3(C(=O)N4CCN(C)CC4)CC3)nc12 [Compound 204, 4-{8-Methoxy-2-[1-(4-methyl-piperazine-1-carbonyl)-cyclopropyl]-[1,2,4]triazolo[1,5-a]pyridin-5-yl}-benzonitrile] |
| < 500 | COc1ccc(-c2cccc(C(C)=O)c2)n2nc(C3(C(=O)NCCS(N)(=O)=O)CC3)nc12 [Compound 225, 1-[5-(3-Acetyl-phenyl)-8-methoxy-[1,2,4]triazolo[1,5-a]pyridin-2-yl]-cyclopropanecarboxylic acid (2-sulfamoyl-ethyl)-amide] |
| < 500 | COc1ccc(-c2ccc(C#N)cc2)n2nc(C3(C(=O)NC4CC4)CC3)nc12 [Compound 213, 1-[5-(4-Cyano-phenyl)-8-methoxy-[1,2,4]triazolo[1,5-a]pyridin-2-yl]-cyclopropanecarboxylic acid cyclopropylamide] |
| < 500 | COc1ccc(-c2ccc(C#N)cc2)n2nc(C3(C(=O)NCc4ccccc4)CC3)nc12 [Compound 206, 1-[5-(4-Cyano-phenyl)-8-methoxy-[1,2,4]triazolo[1,5-a]pyridin-2-yl]-cyclopropanecarboxylic acid benzylamide] |
| < 500 | CNC(=O)C1(c2nc3c(OC)ccc(-c4ccc(C#N)cc4)n3n2)CC1 [Compound 210, 1-[5-(4-Cyano-phenyl)-8-methoxy-[1,2,4]triazolo[1,5-a]pyridin-2-yl]-cyclopropanecarboxylic acid methylamide] |
| < 500 | COc1ccc(-c2cccc(C(C)=O)c2)n2nc(C3(C(=O)NCCS(C)(=O)=O)CC3)nc12 [Compound 226, 1-[5-(3-Acetyl-phenyl)-8-methoxy-[1,2,4]triazolo[1,5-a]pyridin-2-yl]-cyclopropanecarboxylic acid (2-methanesulfonyl-ethyl)-amide] |
| < 500 | COc1ccc(-c2ccc3c(c2)CCC3=O)n2nc(C3(COC(=O)NC(C)C)CC3)nc12 [Compound 239, Isopropyl-carbamic acid 1-[8-methoxy-5-(1-oxo-indan-5-yl)-[1,2,4]triazolo[1,5-a]pyridin-2-yl]-cyclopropylmethyl ester] |
| < 500 | COc1ccc(-c2ccc3c(c2)COC3=O)n2nc(C3(C(=O)NCCS(C)(=O)=O)CC3)nc12 [Compound 269, 1-[8-Methoxy-5-(1-oxo-1,3-dihydro-isobenzofuran-5-yl)-[1,2,4]triazolo[1,5-a]pyridin-2-yl]-cyclopropanecarboxylic acid (2-methanesulfonyl-ethyl)-amide] |
